Data reported in PubChem BioAssay AID1361 (SRMLSC, 2008).
pIC50: −log10 of the molar value. Active and inactive are the calls of the source. How the calls were made is not given here.

Assay: mitochondrial fusion inhibitors, confirmation, cell-based, chemical genetic, wild-type and mutant (AID 1361)
Conditions: Cell-based mitochondrial fusion phenotype, imaging
[1] = mutant cells, measured here: mutant cell line IC50

SMILES	pIC50 (WT cells)	pIC50 [1]	IC50 (WT cells)
Cc1ccc(S(=O)(=O)c2c(C)nn(C(C)(C)C)c2OC(=O)CC(C)C)cc1	4.65	< 4.60	
CC12CCC(c3c(C(=O)O)nn(-c4ccc(F)cc4)c31)C2(C)C (stereo not drawn)		< 4.60	> 25 µM (inactive)
O=C1N(O)C2(C=CCCC2)/C(=N\O)C12CCCCC2 (stereo not drawn)		< 4.60	> 25 µM (inactive)
O=C1NC(=O)C(CCc2ccncc2)(Cc2cccc(Cl)c2Cl)C(=O)N1c1ccc(Br)cc1 (stereo not drawn)	4.99	< 4.60	
CCOc1ccc(C(C(=O)NC2CCCC2)N(Cc2ccccc2)C(=O)c2nsc(Cl)c2Cl)cc1 (stereo not drawn)	4.92	< 4.60	
COc1ccccc1CNC(=O)c1ccccc1OCc1ccc(F)cc1	4.66	< 4.60	
Nc1c(C(=O)NC2CCCC2)sc2nc(-c3cccs3)ccc12		< 4.60	> 25 µM (inactive)
CCc1nnc(NC(=O)c2ccc(S(=O)(=O)N(CC(C)C)CC(C)C)cc2)o1	4.65	< 4.60	
Cc1cccc(OCC(=O)Nc2nc3ccc([N+](=O)[O-])cc3s2)c1C		< 4.60	> 25 µM (inactive)
CCCCC(c1nnnn1CC1CCCO1)N1CCN(c2cc(Cl)ccc2C)CC1 (stereo not drawn)	4.66	< 4.60	
CCOc1ccc(NC(=O)CSc2nnc(-c3ccco3)n2C)cc1		< 4.60	> 25 µM (inactive)
CC(Oc1ccc(Cl)cc1Cl)C(=O)NCCCCc1ccccc1 (stereo not drawn)		< 4.60	> 25 µM (inactive)
Cc1oc(-c2ccccc2F)nc1CN1CCC(C(=O)NCCC2=CCCCC2)CC1		< 4.60	> 25 µM (inactive)
N#Cc1ccccc1Sc1ccccc1C(=O)Nc1ccc(Br)cc1		< 4.60	> 25 µM (inactive)
CCCn1c(N2CCC(Cc3ccccc3)CC2)nc2c1c(=O)[nH]c(=O)n2C		< 4.60	> 25 µM (inactive)
CCOC(=O)C1=C(C)C(c2cccc(Oc3ccccc3)c2)NC(=S)N1 (stereo not drawn)		< 4.60	> 25 µM (inactive)
O=C(N=C1SCC(=O)N1c1ccccc1Cl)c1ccccc1		< 4.60	> 25 µM (inactive)
Fc1ccc(Cn2nnnc2C(c2cccs2)N2CCCCCC2)cc1 (stereo not drawn)		< 4.60	> 25 µM (inactive)
CC(C)SCc1cc(N2CCCC2)nc(-c2ccccc2)n1	4.63	< 4.60	
COc1ccccc1Cn1c(/C=C/c2ccccc2)nc2ccccc21		5.07	9.02 µM (inactive)

SMILES	pIC50 (WT cells)	pIC50 [1]	IC50 (WT cells)
O=C(CN1CCN(S(=O)(=O)c2ccc(Cl)s2)CC1)NCc1ccc(Cl)cc1		< 4.60	> 25 µM (inactive)
N#Cc1nc(-c2ccco2)oc1NCc1ccc(F)cc1		< 4.60	> 25 µM (inactive)
O=S(Cc1ccc(Br)cc1)Cc1nnc(SCc2ccc(Br)cc2)n1-c1ccccc1 (stereo not drawn)	4.86	< 4.60	
CC1(C)CC(=O)C(C=NCc2cccnc2)=C(O)C1		< 4.60	> 25 µM (inactive)
CSCc1nnc(NC(=O)c2ccc(S(=O)(=O)N(CC(C)C)CC(C)C)cc2)o1		< 4.60	> 25 µM (inactive)
Clc1ccc(CSc2nnc(-c3ccncc3)o2)c(Cl)c1		< 4.60	> 25 µM (inactive)
COc1ccc(NC(=O)c2oc3ccccc3c2NC(=O)COc2ccccc2OC)c(OC)c1		< 4.60	> 25 µM (inactive)
CNC(=S)N1CCN(c2ccc([N+](=O)[O-])cc2)CC1		< 4.60	> 25 µM (inactive)
CC1=CN2C(=N)/C(=C/c3ccc(Sc4ccc(C)cc4)o3)C(=O)N=C2S1	5.11	< 4.60	
COc1ccc(C2N(c3ccc(Cl)cc3)N=C(C(C)=O)N(C)N2C(C)=O)cc1 (stereo not drawn)	4.80	< 4.60	
Cn1c(=O)cc(OCCCC(=O)N2CCN(c3ccccc3)CC2)c2ccccc21		< 4.60	> 25 µM (inactive)
CNC(=S)NCCC(c1ccccc1)c1ccccc1		< 4.60	> 25 µM (inactive)
CCN(CC)c1nc(-c2ccccc2)ncc1S(=O)(=O)c1ccc(C)cc1	4.96	< 4.60	
Cc1nc(=O)c(-c2ccccc2)c(C)n1CCCCCC(=O)O		< 4.60	> 25 µM (inactive)
O=C(CNCc1ccccc1Cl)Nc1ccccc1N1CCCCC1	4.88	< 4.60	
CCOc1cccc(Oc2ncccc2C(=O)/C(C#N)=C/N(C)C)c1		< 4.60	> 25 µM (inactive)
O=C(CSc1nnc(CCc2ccccc2)n1-c1ccc(Cl)cc1)c1ccccc1	4.77	< 4.60	
CCOC(=O)c1c(NS(=O)(=O)c2ccc(Br)cc2)sc2c1CCC2	4.90	< 4.60	
COc1ccc(S(=O)(=O)N2c3ccccc3OCC2C(C)(C)C)cc1 (stereo not drawn)	4.73	< 4.60	
Oc1ccc(/C=N/Nc2nc(N3CCCCCC3)nc(N3CCCCCC3)n2)c(O)c1	5.02	< 4.60	

SMILES	pIC50 (WT cells)	pIC50 [1]	IC50 (WT cells)
Cc1ccc(Cl)cc1N1CCN(CC(=O)NC2CCCc3ccccc32)CC1 (stereo not drawn)	4.94	4.63	
c1ccc(CNc2nc(-c3cccs3)nc3ccccc23)cc1		< 4.60	> 25 µM (inactive)
Cc1cc(C)n(CC(O)Cn2c3ccc(Br)cc3c3cc(Br)ccc32)c(=O)n1 (stereo not drawn)	4.96	< 4.60	
Cc1ccc(/C=N/n2cnc3sc(-c4ccccc4)cc3c2=O)o1		< 4.60	> 25 µM (inactive)
Cc1cccc(NC(=S)N=Nc2c(O)[nH]c3ccccc23)c1		< 4.60	> 25 µM (inactive)
Clc1ccc(C2=Nn3c(nnc3-c3cc(-c4ccccc4)n[nH]3)SC2)cc1		< 4.60	> 25 µM (inactive)
CN1CCC2(CC1)Nc1nc(SCc3ccc(Cl)cc3)nn1C1=C2CN(C)CC1		< 4.60	> 25 µM (inactive)
Cc1ccc(C(=O)/C=C/c2c(C)nn(-c3ccccc3)c2Cl)cc1	4.69	< 4.60	
CCn1c(CNC(=O)c2ccco2)nnc1SCC(=O)Nc1cc(C(F)(F)F)ccc1Cl		< 4.60	> 25 µM (inactive)
CC(=O)Nc1sc2c(c1C(c1ccc(Cl)cc1)N1CCOCC1)CCCC2 (stereo not drawn)	4.88	< 4.60	
N#CCC(=O)N/N=C/c1cc(-c2ccccc2)n(-c2ccc(Cl)cc2)c1-c1ccccc1	5.38	< 4.60	
C=C(C)C1CC=C(C)/C(=N\NC(=S)Nc2ccc(C)cc2)C1 (stereo not drawn)		< 4.60	> 25 µM (inactive)
O=c1c2c3c(sc2nc(NCCO)n1CCc1ccccc1)CCCCC3	4.65	< 4.60	
CCOC(=O)N1CCN(CC(O)COC2CC(C)CCC2C(C)C)CC1 (stereo not drawn)		< 4.60	> 25 µM (inactive)
COc1ccc(-c2nc3ccccc3s2)cc1O		< 4.60	> 25 µM (inactive)
CCC1=NN2C(=N)/C(=C\c3cccn3-c3ccc(C)cc3C)C(=O)N=C2S1	4.88	< 4.60	
C[C@]1(C(=O)NCCCNc2ncc(C(F)(F)F)cc2Cl)C=C[C@@H](Cc2ccccc2)N1C(=O)c1ccccc1	4.92	< 4.60	
O=c1c2ccccc2[nH]c(=S)n1-c1ccc2c(c1)OCO2		< 4.60	> 25 µM (inactive)
COc1ccc(OCCC(=O)N2CCCCC2)cc1		< 4.60	> 25 µM (inactive)
